Format in all cases: cell-free
For one assay, the species on record is Mus musculus. Description: In vitro plasma protein binding (reported as Fu[%]) of 10,000 ng.ml-1 [14C] aliskiren hemifumarate in pooled plasma samples of mouse. The arrangement: conc 10000 ng.ml-1, sampling time 1 h. The settings on record: CD-1(ICR)BR, tested as the 14C-labelled form, at 10000 ng/mL.
For the next assay, the species on record is Rattus norvegicus. The assay can be described thus: In vitro plasma protein binding (reported as Fu[%]) of 10,000 ng.ml-1 [14C] aliskiren hemifumarate in pooled plasma samples of rat. The arrangement: conc 10000 ng.ml-1, sampling time 1 h. As to conditions: WI(Glx/BRL/Han)BR, tested as the 14C-labelled form, at 10000 ng/mL.
The species entered for another assay is Oryctolagus cuniculus. Description: In vitro plasma protein binding (reported as Fu[%]) of 10,000 ng.ml-1 [14C] aliskiren hemifumarate in pooled plasma samples of rabbit. The arrangement: conc 10000 ng.ml-1, sampling time 1 h. The settings on record: New Zealand White, tested as the 14C-labelled form, at 10000 ng/mL.
Another assay is filed under the species Callithrix jacchus. Description: In vitro plasma protein binding (reported as Fu[%]) of 10,000 ng.ml-1 [14C] aliskiren hemifumarate in pooled plasma samples of marmoset. The arrangement: conc 10000 ng.ml-1, sampling time 1 h. The settings on record: tested as the 14C-labelled form, at 10000 ng/mL.
The species entered for assay [1] is Homo sapiens. The assay can be described thus: (§1) In vitro plasma protein binding (reported as Fu[%]) of 500 ng.ml-1 [14C] aliskiren hemifumarate in human. The arrangement: conc 500 ng.ml-1, sampling time 1 h. The settings on record: tested as the 14C-labelled form, at 500 ng/mL.
Assay [2] is filed under the species Homo sapiens. Described as §1. Also noted: conc 500 ng.ml-1, sampling time 1 h. The settings on record: tested as the 14C-labelled form, at 500 ng/mL. This is another data set of the same source.
The species entered for assay [3] is Homo sapiens. The assay is described as §1. Also noted: conc 500 ng.ml-1, sampling time 1 h. The settings on record: tested as the 14C-labelled form, at 500 ng/mL. The source holds these as a separate data set.

The structures appear in SMILES notation.

As for `COCCCOc1cc(C[C@@H](C[C@H](N)[C@@H](O)C[C@H](C(=O)NCC(C)(C)C(N)=O)C(C)C)C(C)C)ccc1OC`, the Fu in the assay filed under Mus musculus is 28.8%; in the assay listed under Rattus norvegicus, 38.3%; in the assay listed under Oryctolagus cuniculus it was 42.5%; in the assay filed under Callithrix jacchus it was 8.1%; in the assay listed under Homo sapiens [1], 49.8%; in the assay listed under Homo sapiens [2] it was 47.3%. Besides, the Fu in the assay listed under Homo sapiens [3] is 51.4%.

Source of the values: ChEMBL document CHEMBL3508693.
